Results on four molecules are retold here after US10683287B2, “Heterocyclic derivatives and their use in the treatment of neurological disorders” (Novartis AG, priority 2011, dated 2020).

pIC50: −log10 of the molar value.

The subject of the assay is Cellular Release of Amyloid Peptide 1-40. Description: Test 4: Inhibition of Cellular Release of Amyloid Peptide 1-40. The assay is classed as cell-based, Chinese hamster. Particulars: Cricetulus griseus, 24 h; read-out: Amyloid-β1-40 release IC50. As for the experimental part:
Chinese hamster ovary cells are transfected with the human gene for amyloid precursor protein. The cells are plated at a density of 8000 cells/well into 96-well microtiter plates and cultivated for 24 hours in DMEM cell culture medium containing 10% FCS. The test compound is added to the cells at various concentrations, and the cells are cultivated for 24 hours in the presence of the test compound.
Usually pIC50 stands for the IC50 on a negative log10 scale, so that one unit is a factor of ten. With `C[C@@]1(c2cccc(NC(=O)c3ncc(C#N)cc3Cl)n2)CO[C@@](C)(C(F)(F)F)C(N)=N1` [Example 20, 3-Chloro-5-cyano-pyridine-2-carboxylic acid [6-((3R,6R)-5-amino-3,6-dimethyl-6-trifluoromethyl-3,6-dihydro-2H-[1,4]oxazin-3-yl)-pyridin-2-yl]-amide], the pIC50 is 8.30.
As for `N#Cc1cnc(C(=O)Nc2ccc(F)c([C@]3(C(F)F)COCC(N)=N3)n2)c(Cl)c1` [Example 40, 3-Chloro-5-cyano-pyridine-2-carboxylic acid [6-((R)-5-amino-3-difluoromethyl-3,6-dihydro-2H-[1,4]oxazin-3-yl)-5-fluoro-pyridin-2-yl]-amide], the pIC50 is 7.92.
The same measure for `C[C@@]1(c2cccc(NC(=O)c3ncc(C#N)cc3N)n2)CO[C@@](C)(C(F)(F)F)C(N)=N1` [Example 19, 3-Amino-5-cyano-pyridine-2-carboxylic acid [6-((3R,6R)-5-amino-3,6-dimethyl-6-trifluoromethyl-3,6-dihydro-2H-[1,4]oxazin-3-yl)-pyridin-2-yl]-amide]: 7.32; for `Cc1cc(C#N)cnc1C(=O)Nc1ccc(F)c([C@]2(C)CO[C@@](C)(C(F)(F)F)C(N)=N2)n1` [Example 11, 5-Cyano-3-methyl-pyridine-2-carboxylic Acid [6-((3R,6R)-5-amino-3,6-dimethyl-6-trifluoromethyl-3,6-dihydro-2H-[1,4]oxazin-3-yl)-5-fluoro-pyridin-2-yl]-amide]: 8.70.
